# Legend:
# [1] = test system: NAPE-PLD; experiment: qRT-PCR gene expression of NAPE-PLD; type: cell-based, human; details: HaCaT cells, half-IC50 dose, 24 h, vs. control
# Description: (§1) The HaCaT cells were seeded into 6-well plates at a density of 4 × 10^4 per well, incubated overnight and then treated with the selected pCBs (CBG (6.0 µM), CBC (4.0 µM), THCV (9.0 µM) and CBGA (13.0 µM)) for 24 h. The cell pellets were collected and RT-PCR reactions were performed using the RevertAid H Minus First Strand cDNA Synthesis Kit. The relative abundance was assessed via RT quantitative PCR (RT-qPCR) using the SensiFAST SYBR Lo-ROX Kit in an Applied Biosystems 7500 Fast Real-Time PCR System (Life Technologies). To provide the precise quantification of the initial target in each PCR reaction, the amplification plot was examined, as well as the point of early log phase of the product accumulation, which was defined by assigning a fluorescence threshold above the background that was defined as the threshold cycle number or “Ct. Differences” in threshold cycle number that was used to quantify the relative amount of the PCR targets that were contained within each tube. After PCR, a dissociation curve (melting curve) was constructed in the range of 60 °C to 95 °C [62] to evaluate the specificity of the amplification products. The relative expression of the different amplicons was calculated using the delta–delta Ct (ΔΔCt) method and then converted into the relative expression ratio (2^−ΔΔCt) for statistical analysis. […]
# [2] = test system: transformed human keratinocytes; parameters: method as in PMID 17157480; details: hyperproliferative conditions; ref [46]; cited from earlier work
# [3] = test system: MAGL; experiment: qRT-PCR gene expression of MAGL; type: cell-based, human; details: HaCaT cells, half-IC50 dose, 24 h, vs. control
# Description: as §1
# [4] = test system: PEA; experiment: Endogenous PEA content by UHPLC-MS/MS; type: cell-based, human; details: HaCaT cells, half-IC50 dose, 24 h, vs. control
# Description: (§2) The HaCaT cells were seeded into 6-well plates at a density of 4 × 10^4 per well, incubated overnight and then treated with the selected pCBs (6.0 µM of CBG, 4.0 µM of CBC, 9.0 µM of THCV and 13.0 µM of CBGA) for 24 h. The analytical standards that were used were N-arachidonoylethanolamine (AEA), N-arachidonoylethanolamine-d8 (AEA-d8), 2-arachidonoylglicerol (2-AG), 2-arachidonoylglicerol-d8 (2-AG-d8), N-palmitoylethanolamine (PEA) and […] (PEA-d4). The lipid fraction from these cells was extracted using chloroform–methanol–water (2:1:1 v/v) in the presence of ISs (1 ng/mL^−1 of AEA-d8, 100 ng mL^−1 of 2-AG-d8 and 1 ng mL^−1 of PEA-d4). The organic phase was dried under gentle nitrogen stream and then subjected to a micro-solid phase extraction (µSPE) procedure for a rapid clean-up using OMIX C18 tips from Agilent Technologies (Santa Clara, CA, USA). All analyses were performed using a Nexera XR LC 20 AD UHPLC system (Shimadzu Scientific Instruments, USA) that was equipped with Kinetex XB-C18 1.7 µm 100 × 2.1 mm from Phenomenex (Torrance, CA, USA) (for the LC parameters, see Figure S5) and coupled with a 4500 Qtrap from Sciex (Toronto, ON, Canada) that was equipped with a Turbo V electrospray ionization (ESI) source (the MS/MS parameters are shown in Table S1). The levels of AEA, 2-AG and PEA were then calculated as pmoles per 10^6 cells, as reported in [60].
# [5] = test system: skin; parameters: method as in PMID 35056807; details: applied topically; ref [59]; cited from earlier work
# [6] = test system: 2-AG; experiment: Endogenous 2-AG content by UHPLC-MS/MS; type: cell-based, human; details: HaCaT cells, half-IC50 dose, 24 h, vs. control
# Description: as §2
# [7] = test system: FAAH; experiment: qRT-PCR gene expression of FAAH; type: cell-based, human; details: HaCaT cells, half-IC50 dose, 24 h, vs. control
# Description: as §1
# [8] = test system: NAPE-PLD; experiment: NAPE-PLD activity assay in homogenates of treated cells; type: cell-based, human; details: HaCaT cells, half-IC50 amount, 24 h, vs. control
# Description: NAPE-PLD: The HaCaT cells were seeded into 6-well plates at a density of 4 × 10^4 per well, incubated overnight and then treated with the selected pCBs (6.0 µM of CBG, 4.0 µM of CBC, 9.0 µM of THCV and 13.0 µM of CBGA) for 24 h. The cell pellets were collected and NAPE-PLD activity was determined in the homogenates of the cells after 24 h of treatment with each pCB. Then, the homogenates were incubated in a reaction mixture that contained 50 mM of Tris–HCl, 0.05% Triton X-100 pH 8.0 and 10 µM of fluorogenic substrate PED6 (N-((6-(2,4-Dinitrophenyl)amino)hexanoyl)-2(4,4-Difluoro-5,7-Dimethyl-4-Bora-3a,4a-Diaza-s-Indacene-3-Pentanoyl)-1-Hexadecanoyl-sn-Glycero-3 Phosphoethanolamine, Triethylammonium Salt). The homogenates were pre-incubated with the specific NAPE-PLD inhibitor ARN19874 at 3.8 mM [65] (Cayman Chemical, Ann Arbor, MI, USA) for 30 min at room temperature in order to fully erase the enzyme activity as a control. Fluorescence values were measured with excitation at λ = 485–488 nm and emission at λ = 530 nm at 37 °C by means of continuity kinetics at 30-sec intervals for 30 min in an Enspire multimode plate reader (Perkin Elmer, Waltham, MA, USA), as reported in [66]. NAPE-PLD activity was expressed as florescence intensity (arbitrary units, AU) per min per mg of protein.
# [9] = test system: DAGLβ; experiment: Western blot protein expression of DAGLβ; type: cell-based, human; details: HaCaT cells, half-IC50 dose, 24 h, vs. control
# Description: The HaCaT cells were seeded into 6-well plates at a density of 4 × 10^4 per well, incubated overnight and then treated with the selected pCBs (6.0 µM of CBG, 4.0 µM of CBC, 9.0 µM of THCV and 13.0 µM of CBGA) for 24 h. The cell pellets were collected and then lysed in an ice-cold lysis buffer (10 mM of EDTA, 50 mM of pH 7.4 Tris–HCl, 150 mM of sodium chloride, 1% Triton-X-100, 2 mM of phenylmethylsulfonyl fluoride, 2 mM of sodium orthovanadate, […] of leupeptin and […] of aprotinin). The amount of protein was determined using the Bio-Rad Protein assay (Bio-Rad Laboratories, Hemel Hempstead, UK). An equal amount of protein (60 µg) was loaded onto 10% sodium dodecyl sulfate–polyacrylamide gels and blotted onto polyvinylidene fluoride sheets (Amersham Biosciences, Piscataway, NJ, USA). The membranes were blocked with dried 5% non-fat milk for 1 h and then incubated with suitable primary antibodies. Detection was performed using Azure Biosystems c400 (Dublin, CA, USA). The membranes were stripped using the Restore Western Blot Stripping Buffer from Thermo Fisher Scientific (Waltham, MA, USA) for 30 min under agitation at room temperature, according to the manufacturer’s instructions. The primary antibodies (Table 6) that were used were obtained from the following sources: […]
smiles,measurement,setting,value
"CCCCCc1cc(O)c2c(c1)OC(C)(CCC=C(C)C)C=C2 (centres unmarked) [CBC, cannabichromene]",gene expression of NAPE-PLD (in words),[1],significantly increased
"CCCCCc1cc(O)c(C/C=C(\C)CCC=C(C)C)c(O)c1 [CBG, cannabigerol]",proliferation of transformed human keratinocytes,[2],inhibit the proliferation
same,gene expression of MAGL (in words),[3],significantly increase
same,endogenous PEA content,[4],markedly increased
same,skin health after topical application,[5],reducing the appearance of redness and improving barrier function
same,endogenous 2-AG content,[6],markedly increased
"CCCCCc1cc(O)c(C/C=C(\C)CCC=C(C)C)c(O)c1C(=O)O [CBGA, cannabigerolic acid]",Gene Expression FAAH,[7],FAAH ↓+++
same,gene expression of FAAH (in words),[7],significantly reduced
same,activity of NAPE-PLD,[8],significantly increased
"CCCc1cc(O)c2c(c1)OC(C)(C)[C@@H]1CCC(C)=C[C@@H]21 [THCV, Δ^9-tetrahydrocannabivarin]",DAGLβ protein expression (in words),[9],significantly reduced
same,Protein Expression DAGLβ,[9],↓+++

# Source: article PMC9145865, “Effects of Rare Phytocannabinoids on the Endocannabinoid System of Human Keratinocytes” (International Journal of Molecular Sciences, 2022)
